Source: patent US20250206714A1, “COMPOSITIONS AND METHODS FOR TREATMENT OF INFLAMMATORY DISEASES” (Invea Therapeutics, Inc., priority 2022, published 2025)

What was measured:
[1] = Metabolic stability assay in human liver microsomes in the presence of specific cytochrome P450 inhibitors (arm without inhibitor, summary statements); settings: for % rem @ 5 min / % rem @ 15 min / % rem @ 30 min / % rem @ 45 min: 1 μM, no inhibitor
[2] = biological target: T1, CYP 2C9 (Homo sapiens, UniProt P11712); assay: Metabolic stability in human liver microsomes with CYP 2C9 inhibitor Sulfaphenazole; type: in vitro ADME; settings: 1 μM + Sulfaphenazole (20 μM)
T1 construct: The experiment was conducted in human liver microsomes; from tissue; host or cells: human liver microsomes
T1 sequence (P11712 whole entry): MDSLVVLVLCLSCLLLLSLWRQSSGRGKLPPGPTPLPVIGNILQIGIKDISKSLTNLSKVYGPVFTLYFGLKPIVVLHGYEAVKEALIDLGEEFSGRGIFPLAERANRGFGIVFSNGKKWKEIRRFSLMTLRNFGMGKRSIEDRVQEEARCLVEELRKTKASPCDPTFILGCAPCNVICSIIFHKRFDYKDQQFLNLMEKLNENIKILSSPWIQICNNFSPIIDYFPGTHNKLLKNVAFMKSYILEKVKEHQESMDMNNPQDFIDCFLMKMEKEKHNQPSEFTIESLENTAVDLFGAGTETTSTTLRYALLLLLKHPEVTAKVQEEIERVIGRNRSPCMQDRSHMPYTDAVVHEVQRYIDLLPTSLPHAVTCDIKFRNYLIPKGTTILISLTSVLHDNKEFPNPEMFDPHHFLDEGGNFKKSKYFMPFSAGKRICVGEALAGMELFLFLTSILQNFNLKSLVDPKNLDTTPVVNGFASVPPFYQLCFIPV

[3] = system: MDR1; assay: in vitro; design: Papp A→B at 60 min / Papp B→A at 60 min / efflux ratio at 60 min / recovery at 60 min / % recovery Apical concentration-Basal concentration / % recovery Basal concentration-Apical concentration: dose or concentration left out as unconfirmed; settings: dog, MDCK-MDR1
Experimental: (§1) Digoxin is used as reference and lucifer yellow is used as the integrity marker. […] Papp, efflux ratio and percent recovery are calculated.

[4] = system: MDR1 (P-gp); assay: in vitro; design: Papp A→B at 60 min / Papp B→A at 60 min / efflux ratio at 60 min / recovery at 60 min / % recovery Apical concentration-Basal concentration / % recovery Basal concentration-Apical concentration: dose or concentration left out as unconfirmed; settings: dog; for efflux ratio at 60 min: MDCK-MDR1
Experimental: as §1

[5] = system: IL-1β; assay: LPS+ATP-induced model of inflammasome activation, plasma IL-1β by ELISA; type: in vivo, Balb/c mice; settings: 20 mg/kg, Intraperitoneal; mice plasma
Experimental: The procedures detailed here can be utilized for testing all compounds of the disclosure. The example utilizes LPS+ATP-induced model of inflammasome activation in 8-10 weeks old male Balb/c mice for in vivo testing.
8-10 weeks old male Balb/c mice were challenged by intraperitoneal (i.p.) injection of 200 μg/Kg (0.2 μg/g) LPS at t=0 hr, followed by i.p. injection of 5 mM solution of ATP at t=2 hr (2 h after LPS challenge). The compound of disclosure being tested for inhibitory activity (such as Compound 6) was administered both via intraperitoneal and oral route at −1 hr. Different doses of the compound of the disclosure were given to the mice […] as shown below.
MCC950, a specific small molecule inhibitor of NLRP3 inflammasome was used as a positive control to enable comparison of inhibitory activity of the compounds of the disclosure along with a known inhibitor. 2.5 hours after the LPS priming (or 0.5 hours after ATP administration), blood was collected via retro-orbital bleeding in heparinized blood collection tubes. Blood was centrifuged for 5 minutes at 10,000 rpm in a refrigerated centrifuge to obtain plasma. Separated plasma was used for cytokine assessment by ELISA. The standard curve (OD VS concentration) for IL-1β was also plotted and used to determine the IL-1β concentration for the OD values. The percentage of inhibition of IL-1β was calculated using the formula: […]

[6] = biological target: CYP 3A4 (Homo sapiens, UniProt P08684); assay: Metabolic stability in human liver microsomes with CYP 3A4 inhibitor Ketoconazole; settings: 1 μM + Ketoconazole (20 μM)
Chain of CYP 3A4 (P08684 whole entry): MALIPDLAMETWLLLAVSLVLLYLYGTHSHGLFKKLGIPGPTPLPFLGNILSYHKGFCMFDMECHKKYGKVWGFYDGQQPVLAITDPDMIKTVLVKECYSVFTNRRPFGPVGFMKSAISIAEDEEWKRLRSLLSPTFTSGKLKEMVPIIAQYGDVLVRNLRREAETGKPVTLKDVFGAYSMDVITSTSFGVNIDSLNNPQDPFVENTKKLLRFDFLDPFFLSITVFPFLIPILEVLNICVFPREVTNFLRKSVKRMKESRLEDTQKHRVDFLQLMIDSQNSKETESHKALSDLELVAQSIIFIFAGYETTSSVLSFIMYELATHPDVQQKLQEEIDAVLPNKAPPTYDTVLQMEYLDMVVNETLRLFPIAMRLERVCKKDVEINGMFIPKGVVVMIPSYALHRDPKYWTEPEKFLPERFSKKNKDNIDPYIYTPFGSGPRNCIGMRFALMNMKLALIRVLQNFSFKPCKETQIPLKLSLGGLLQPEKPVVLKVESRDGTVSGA

[7] = biological target: T2, CYP 2C19 (Homo sapiens, UniProt P33261); assay: Metabolic stability in human liver microsomes with CYP 2C19 inhibitor Nootkatone; type: in vitro ADME; settings: 1 μM + Nootkatone (20 μM)
T2 construct: The experiment was conducted in human liver microsomes; from tissue; host or cells: human liver microsomes
T2 sequence (P33261 whole entry): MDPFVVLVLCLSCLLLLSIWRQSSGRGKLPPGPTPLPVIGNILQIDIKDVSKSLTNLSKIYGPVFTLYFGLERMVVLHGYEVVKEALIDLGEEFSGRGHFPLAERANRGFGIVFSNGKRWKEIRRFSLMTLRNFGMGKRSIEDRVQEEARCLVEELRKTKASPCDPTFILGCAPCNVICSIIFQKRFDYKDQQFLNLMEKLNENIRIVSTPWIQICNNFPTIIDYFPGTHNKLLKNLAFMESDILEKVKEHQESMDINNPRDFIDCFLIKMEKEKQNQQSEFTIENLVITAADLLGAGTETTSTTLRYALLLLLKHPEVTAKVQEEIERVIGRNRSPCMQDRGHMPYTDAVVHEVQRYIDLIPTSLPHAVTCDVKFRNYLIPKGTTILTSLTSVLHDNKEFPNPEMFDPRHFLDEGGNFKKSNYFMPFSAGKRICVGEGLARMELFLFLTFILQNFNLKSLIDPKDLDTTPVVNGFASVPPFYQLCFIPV

[8] = biological target: T3, CYP 1A2 (Homo sapiens, UniProt P05177); assay: Metabolic stability in human liver microsomes with CYP 1A2 inhibitor Furafylline; type: in vitro ADME; settings: 1 μM + Furafylline (20 μM)
T3 construct: The experiment was conducted in human liver microsomes; from tissue; host or cells: human liver microsomes
T3 sequence (P05177 1-516): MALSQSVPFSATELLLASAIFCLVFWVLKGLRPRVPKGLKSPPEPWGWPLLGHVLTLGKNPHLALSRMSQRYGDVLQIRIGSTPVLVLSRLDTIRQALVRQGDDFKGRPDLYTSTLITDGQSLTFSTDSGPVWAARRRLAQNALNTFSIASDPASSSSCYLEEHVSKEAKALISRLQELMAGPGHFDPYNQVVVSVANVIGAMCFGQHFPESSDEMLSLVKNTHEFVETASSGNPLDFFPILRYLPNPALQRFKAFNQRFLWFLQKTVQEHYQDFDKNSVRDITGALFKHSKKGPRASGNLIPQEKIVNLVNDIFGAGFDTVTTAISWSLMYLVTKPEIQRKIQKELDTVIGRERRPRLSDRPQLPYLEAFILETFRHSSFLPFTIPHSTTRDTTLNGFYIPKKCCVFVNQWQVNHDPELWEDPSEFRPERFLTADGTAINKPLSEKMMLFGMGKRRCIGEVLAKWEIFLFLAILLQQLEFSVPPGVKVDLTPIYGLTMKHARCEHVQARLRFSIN

[9] = system: MDR1 transfected Madin-Darby canine kidney (MDCK) cell monolayer; assay: Permeability assay (MDR1-MDCK); design: Papp A→B at 60 min / Papp B→A at 60 min / efflux ratio at 60 min / recovery at 60 min / % recovery Apical concentration-Basal concentration / % recovery Basal concentration-Apical concentration: dose or concentration left out as unconfirmed; settings: Permeability (MDR1-MDCK) @
Experimental: as §1

[10] = MDCK-MDR1, % recovery Apical concentration-Basal concentration
[11] = MDCK-MDR1, % recovery Basal concentration-Apical concentration
[12] = human, human liver microsomes, pH 7.4

Molecule: O=C(O)Cc1ccccc1Nc1c(Cl)cccc1Cl [Diclofenac, reference compound]
- % rem @ 5 min ([1]; human liver microsomes): 49.5%
- % rem @ 15 min ([1]; human liver microsomes): 28.3%
- % rem @ 30 min ([1]; human liver microsomes): 10.5%
- % rem @ 45 min ([1]; human liver microsomes): 4.93%
- % rem @ 5 min [2]: ~100%
- % rem @ 15 min [2]: ~100%
- % rem @ 30 min [2]: 91.9%
- % rem @ 45 min [2]: 82.0%
- half-life at 1 µM ([2]; pH 7.4, with Sulfaphenazole 20 μM): 131 min
- microsomal CLint at 1 μM ([2]; pH 7.4, with Sulfaphenazole 20 μM, read-out: mCLint): 10.6 µL/min/mg

Molecule: C[C@H]1O[C@@H](O[C@H]2[C@@H](O)C[C@H](O[C@H]3[C@@H](O)C[C@H](O[C@H]4CC[C@@]5(C)[C@H](CC[C@@H]6[C@@H]5C[C@@H](O)[C@]5(C)[C@@H](C7=CC(=O)OC7)CC[C@]65O)C4)O[C@@H]3C)O[C@@H]2C)C[C@H](O)[C@@H]1O [Digoxin]
- Papp A→B at 60 min [3]: 0.28 ×10⁻⁶ cm/s
- Papp B→A at 60 min [3]: 15.2 ×10⁻⁶ cm/s
- efflux ratio at 60 min [4]: 54.3
- recovery at 60 min [4, 10]: 99.9%
- recovery at 60 min [4, 11]: ~100%

Molecule: CC(C)(O)c1coc(S(=O)(=O)NC(=O)Nc2c3c(cc4c2CCC4)CCC3)c1 [MCC950, reference compound]
- % IL-1 β inhibition [5]: 95%

Molecule: Cc1ncc2n1-c1ccc(Cl)cc1C(c1ccccc1F)=NC2 [Midazolam]
- % rem @ 5 min [6]: 96.7%
- % rem @ 15 min [6]: 97.1%
- % rem @ 30 min [6]: ~100%
- % rem @ 45 min [6]: ~100%
- % rem @ 5 min ([1]; human liver microsomes): 22.0%
- % rem @ 15 min ([1]; human liver microsomes): 2.77%
- % rem @ 30 min ([1]; human liver microsomes): <1%
- % rem @ 45 min ([1]; human liver microsomes): <1%
- half-life at 1 µM ([1]; human, microsomes, pH 7.4): 5.21 min

Molecule: COc1ccc2[nH]c([S+]([O-])Cc3ncc(C)c(OC)c3C)nc2c1 (centres unmarked) [Omeprazole, reference compound]
- % rem @ 5 min [7]: 94.8%
- % rem @ 15 min [7]: 92.7%
- % rem @ 30 min [7]: 85.0%
- % rem @ 45 min [7]: 55.6%
- half-life at 1 µM ([7]; pH 7.4, with Nootkatone 20 μM): 59.3 min
- microsomal CLint at 1 μM ([7]; pH 7.4, with Nootkatone 20 μM, read-out: mCLint): 23.4 µL/min/mg
- % rem @ 5 min ([1]; human liver microsomes): 95.9%
- % rem @ 15 min ([1]; human liver microsomes): 71.1%
- % rem @ 30 min ([1]; human liver microsomes): 60.1%
- % rem @ 45 min ([1]; human liver microsomes): 28.8%
- half-life at 1 µM [1, 12]: 26.4 min
- microsomal CLint at 1 μM [1, 12]: 52.6 µL/min/mg

Molecule: CCOc1ccc(NC(C)=O)cc1 [Phenacetin, reference compound]
- % rem @ 5 min [8]: ~100%
- % rem @ 15 min [8]: ~100%
- % rem @ 30 min [8]: ~100%
- % rem @ 45 min [8]: 71.9%
- half-life at 1 µM ([8]; pH 7.4, with Furafylline 20 μM): 102 min
- microsomal CLint at 1 μM ([8]; pH 7.4, with Furafylline 20 μM, read-out: mCLint): 13.6 µL/min/mg

Molecule: CC(C)NCC(O)COc1cccc2ccccc12 (centres unmarked) [Propranolol]
- Papp A→B at 60 min [3]: 47.5 ×10⁻⁶ cm/s
- Papp B→A at 60 min [3]: 48.2 ×10⁻⁶ cm/s
- efflux ratio at 60 min [4]: 1.01
- recovery at 60 min [4, 10]: 71.5%
- recovery at 60 min [4, 11]: ~100%

Molecule: Lucifer yellow
- % recovery Apical concentration-Basal concentration [9]: 97.2%
- % recovery Basal concentration-Apical concentration [9]: 97.1%
